Data: patent publication US11897904B2, “Herbicidally active bicyclic benzamides” (Bayer Aktiengesellschaft, priority 2017, dated 2024)

Key:
ABUTH [1] = assay: Pre-emergence herbicidal action; type: in vivo, Abutilon theophrasti; conditions: pre-emergence comparative experiment, 320 g/ha
Excerpt: (§1) 1. Pre-Emergence Herbicidal Action and Crop Plant Compatibility
(§2) Seeds of monocotyledonous and dicotyledonous weed plants and crop plants are placed in plastic or organic planting pots and covered with soil. The compounds of the invention, formulated in the form of wettable powders (WP) or as emulsion concentrates (EC), are then applied onto the surface of the covering soil as aqueous suspension or emulsion with addition of 0.5% additive at a water application rate of 600 l/ha (converted). After the treatment, the pots are placed in a greenhouse and kept under good growth conditions for the trial plants. After about 3 weeks, the effect of the preparations is scored visually in comparison with untreated controls as percentages. The tables below show the herbicidal activity of numerous compounds according to the invention against important harmful plants. For example, 100% activity=the plants have died, 0% activity=like control plants.

ALOMY [2] = assay: Pre-emergence herbicidal action; type: in vivo, Alopecurus myosuroides; conditions: pre-emergence comparative experiment, 320 g/ha
Excerpt: as §1, §2

AVEFA [3] = assay: Pre-emergence herbicidal action; type: in vivo, Avena fatua; conditions: pre-emergence comparative experiment, 320 g/ha
Excerpt: as §1, §2

MATIN = assay: Pre-emergence herbicidal action; type: in vivo, Matricaria inodora; conditions: pre-emergence comparative experiment, 320 g/ha
Excerpt: as §1, §2

SETVI = assay: Pre-emergence herbicidal action; type: in vivo, Setaria viridis; conditions: pre-emergence comparative experiment, 320 g/ha
Excerpt: as §1, §2

ABUTH [4] = assay: Post-emergence herbicidal action; type: in vivo, Abutilon theophrasti; conditions: post-emergence comparative experiment, 80 g/ha
Method: (§3) 2. Post-Emergence Herbicidal Action and Crop Plant Compatibility
(§4) Seeds of monocotyledonous and dicotyledonous weeds and crop plants are placed in sandy loam in plastic or organic planting pots, covered with soil and cultivated in a greenhouse under controlled growth conditions. 2 to 3 weeks after sowing, the test plants are treated at the one-leaf stage. The compounds of the invention, formulated in the form of wettable powders (WP) or as emulsion concentrates (EC), are then sprayed onto the green parts of the plants as aqueous suspension or emulsion with addition of 0.5% additive at a water application rate of […] (converted). After the test plants had been kept in the greenhouse under optimum growth conditions for about 3 weeks, the activity of the preparations is rated visually in comparison to untreated controls. The tables below show the herbicidal activity of numerous compounds according to the invention against important harmful plants. For example, 100% activity=the plants have died, 0% activity=like control plants.

ALOMY [5] = assay: Post-emergence herbicidal action; type: in vivo, Alopecurus myosuroides; conditions: post-emergence comparative experiment, 80 g/ha
Method: as §3, §4

AVEFA [6] = assay: Post-emergence herbicidal action; type: in vivo, Avena fatua; conditions: post-emergence comparative experiment, 80 g/ha
Method: as §3, §4

LOLMU = assay: Post-emergence herbicidal action; type: in vivo, Lolium multiflorum; conditions: post-emergence comparative experiment, 80 g/ha
Method: as §3, §4

POLCO = assay: Post-emergence herbicidal action; type: in vivo, Polygonum convolvulus; conditions: post-emergence comparative experiment, 80 g/ha
Method: as §3, §4

numerous harmful plants [7] = assay: Pre-emergence comparative experiment, herbicidal activity; type: in vivo
Excerpt: as §2, with “control plants. In a comparative experiment, by way of example, the herbicidal activity of compound No. 2-53 according to the invention was compared to that of compound No. A-117 known from WO 2013/076315 A2.” for “control plants.”

numerous harmful plants [8] = assay: Post-emergence comparative experiment, herbicidal activity; type: in vivo
Method: as §4, with “control plants. In a comparative experiment, by way of example, the herbicidal activity of compound No. 2-53 according to the invention was compared to that of compound No. A-117 known from WO 2013/076315 A2.” for “control plants.”

Cn1nnnc1NC(=O)c1ccc(C(F)(F)F)c2c1OCS2 [Example 2-53, 4-(trifluoromethyl)-1,3-benzoxathiolane-N-(1-methyltetrazol-5-yl)-7-carboxamide]
Herbicidal action against ABUTH (ABUTH [1]): 90%
Herbicidal action against ALOMY (ALOMY [2]): 30%
Herbicidal action against AVEFA (AVEFA [3]): 60%
Herbicidal action against MATIN (MATIN): 90%
Herbicidal action against SETVI (SETVI): 80%
Herbicidal action against ABUTH (ABUTH [4]): 80%
Herbicidal action against ALOMY (ALOMY [5]): 80%
Herbicidal action against AVEFA (AVEFA [6]): 100%
Herbicidal action against LOLMU (LOLMU): 70%
Herbicidal action against POLCO (POLCO): 80%
herbicidal activity compared to that of compound No. A-117 (numerous harmful plants [7]): superiority
herbicidal activity compared to that of compound No. A-117 (numerous harmful plants [8]): superiority
